Read-outs that look alike come from different tables or passages of the source. Bounds are passed on as bounds.

One experiment concerns HCC1954 cells. Nature of the experiment: Antiproliferation assay (Cell-titer Glo, 72 h). The note with it: Homo sapiens, 72 h, means and standard deviations from three independent assays, read-out: HCC1954 (GI50/μM). Format: cell-based. The method, then:
(§1) Breast-cancer cell lines (SK-Br3, HCC-1954) were purchased from Korea Cell Line Bank (Seoul, Korea) and were cultured in RPMI medium supplemented with 10% FBS and penicillin/streptomycin (Welgene, Seoul, Korea). All cell lines were maintained at 37 °C in a cell incubator in the presence of 5% CO2.
(§2) Breast-cancer cells in culture media (100 μL volume/well, 5000 SK-Br3 cells/well, 1000 HCC-1954 cells/well) were seeded in tissue culture-treated 96-well plates, and incubated at a cell incubator for 24 h. Serially diluted compounds (3-fold, 10 point from 10 mM, duplicated) were pre-plated and 500 nL of compound solutions were pin-transferred to the cells in the assay plates using pintool system (JANUS liquid handler, PerkinElmer, Waltham, MA, USA) and incubated at a cell incubator for 72 h. Cell-titer Glo^TM reagent (50 μL, Promega Corp., Madison, WI, USA) was added to each well, and the luminescence signal was read using an Envision^TM plate reader (PerkinElmer, Waltham, MA, USA). The titration curve fitting and IC50 values were generated using Prism 7.0 s/w (GraphPad, San Diego, CA, USA).

A further experiment has as its system SK-Br3 cells. The experiment is described as follows: Antiproliferation assay (Cell-titer Glo, 72 h). Format: cell-based. To be noted: Homo sapiens, SK-BR-3; 72 h; means and standard deviations from three independent assays; read-out: SK-Br3 (GI50/μM). Here is the method: as §1, §2
A further experiment concerns the target CDK12/CyclinK (Homo sapiens, UniProt Q9NYV4). Nature of the experiment: In vitro CDK12/cyclinK kinase assay. Format: biochemical. Also noted: purchased Reaction Biology Corp. (CRO that ran the assay). To be noted: read-out: CDK12/CyclinK (IC50/μM). Here is the method: In vitro CDK12/cyclinK assays for all compounds and in vitro kinome-wide inhibition profiling of 30d at 10 μM were performed by a CRO company (Reaction Biology Corp., San Diego, CA, USA).

Sequence of CDK12/CyclinK (Q9NYV4 whole entry): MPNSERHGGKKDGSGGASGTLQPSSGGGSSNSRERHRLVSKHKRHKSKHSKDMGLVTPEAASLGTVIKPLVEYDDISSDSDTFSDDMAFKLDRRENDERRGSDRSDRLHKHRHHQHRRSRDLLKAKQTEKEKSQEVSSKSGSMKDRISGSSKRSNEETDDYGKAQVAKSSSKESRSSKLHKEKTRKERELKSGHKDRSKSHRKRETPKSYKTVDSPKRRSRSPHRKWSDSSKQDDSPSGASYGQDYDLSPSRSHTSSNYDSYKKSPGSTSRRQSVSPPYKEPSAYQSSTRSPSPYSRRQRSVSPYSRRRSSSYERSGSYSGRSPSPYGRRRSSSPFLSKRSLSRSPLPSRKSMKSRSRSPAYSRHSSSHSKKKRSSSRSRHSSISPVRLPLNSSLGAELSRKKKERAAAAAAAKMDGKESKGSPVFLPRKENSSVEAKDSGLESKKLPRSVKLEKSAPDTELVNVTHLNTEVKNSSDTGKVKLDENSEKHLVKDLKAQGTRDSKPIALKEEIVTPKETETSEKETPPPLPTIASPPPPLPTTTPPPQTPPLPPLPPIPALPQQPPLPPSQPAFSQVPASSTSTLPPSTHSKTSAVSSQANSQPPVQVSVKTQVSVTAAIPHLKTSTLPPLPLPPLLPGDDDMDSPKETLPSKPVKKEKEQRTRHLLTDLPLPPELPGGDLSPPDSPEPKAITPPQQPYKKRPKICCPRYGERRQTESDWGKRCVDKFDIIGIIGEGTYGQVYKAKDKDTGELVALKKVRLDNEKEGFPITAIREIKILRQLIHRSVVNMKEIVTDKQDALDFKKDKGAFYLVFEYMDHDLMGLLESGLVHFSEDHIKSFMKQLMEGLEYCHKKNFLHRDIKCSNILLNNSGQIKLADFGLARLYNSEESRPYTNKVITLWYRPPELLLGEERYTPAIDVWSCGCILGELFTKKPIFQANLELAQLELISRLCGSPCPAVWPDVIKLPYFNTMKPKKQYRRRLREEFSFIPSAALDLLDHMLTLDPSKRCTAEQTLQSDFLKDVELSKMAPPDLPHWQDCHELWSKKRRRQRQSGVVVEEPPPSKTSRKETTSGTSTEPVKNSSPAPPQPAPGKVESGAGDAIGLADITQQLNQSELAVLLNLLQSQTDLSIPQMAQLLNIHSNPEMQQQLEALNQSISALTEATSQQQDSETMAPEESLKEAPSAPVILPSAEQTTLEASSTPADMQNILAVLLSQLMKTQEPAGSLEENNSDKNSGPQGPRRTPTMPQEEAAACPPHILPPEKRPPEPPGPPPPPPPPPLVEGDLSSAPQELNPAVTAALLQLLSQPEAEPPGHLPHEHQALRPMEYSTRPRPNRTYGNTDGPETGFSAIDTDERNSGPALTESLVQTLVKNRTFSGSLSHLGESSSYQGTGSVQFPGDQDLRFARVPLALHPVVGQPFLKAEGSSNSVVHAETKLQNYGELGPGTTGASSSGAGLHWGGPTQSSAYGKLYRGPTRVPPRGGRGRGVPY
Sequence of CDK12/CyclinK (O75909 whole entry partner): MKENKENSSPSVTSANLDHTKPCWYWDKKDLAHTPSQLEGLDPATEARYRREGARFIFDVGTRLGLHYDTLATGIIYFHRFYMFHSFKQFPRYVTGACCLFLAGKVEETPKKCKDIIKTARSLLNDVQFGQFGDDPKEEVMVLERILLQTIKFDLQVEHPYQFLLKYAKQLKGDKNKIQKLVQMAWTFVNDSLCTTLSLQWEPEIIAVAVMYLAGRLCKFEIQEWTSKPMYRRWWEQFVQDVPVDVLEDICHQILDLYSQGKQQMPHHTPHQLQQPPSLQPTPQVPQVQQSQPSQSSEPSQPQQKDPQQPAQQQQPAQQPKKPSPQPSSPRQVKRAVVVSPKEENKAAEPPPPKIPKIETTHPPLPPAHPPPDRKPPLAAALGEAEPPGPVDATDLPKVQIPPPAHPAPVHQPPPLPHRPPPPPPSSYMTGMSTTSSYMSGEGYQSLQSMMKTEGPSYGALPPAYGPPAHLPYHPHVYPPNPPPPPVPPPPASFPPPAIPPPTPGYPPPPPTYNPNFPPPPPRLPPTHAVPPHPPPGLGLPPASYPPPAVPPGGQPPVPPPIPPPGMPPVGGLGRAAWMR

In the case of `CC(C)n1cnc2c(NCc3nc4ccc(F)c(F)c4[nH]3)nc(N3CCCC[C@H]3CCO)nc21` [Compound 2, reference compound], the GI50 worked out at 0.069 ± 0.006 µM in the experiment with HCC1954 cells and 0.094 ± 0.012 µM in the experiment with SK-Br3 cells. Further, on CDK12/CyclinK (Table 5, means and standard deviations from three independent assays), the IC50 amounted to 0.0086 ± 0.0017 µM.
For the compound `Cc1ccc(-c2ccc(CNc3nc(-c4cccnc4)nc4c3ncn4C(C)C)nc2)cn1` [Compound 17c, 9-Isopropyl-N-((6′-methyl-[3,3′-bipyridin]-6-yl)methyl)-2-(pyridin-3-yl)-9H-purin-6-amine], the GI50 with HCC1954 cells came out at 13.6 ± 1.16 µM; with SK-Br3 cells, 24.6 ± 4.99 µM. The IC50 on CDK12/CyclinK (Tables 1-4) turned out to be 1.11 µM.
The like results for `CC(C)n1cnc2c(NCc3ccc(-c4cccnc4)nc3)nc(-c3cccnc3)nc21` [Compound 17f, N-([2,3′-Bipyridin]-5-ylmethyl)-9-isopropyl-2-(pyridin-3-yl)-9H-purin-6-amine] were, in that order, 0.247 ± 0.03 µM, 0.41 ± 0.034 µM and 0.221 µM.
For `CC(C)n1cnc2c(NCc3ccc(-c4ccncc4)nc3)nc(-c3cccnc3)nc21` [Compound 17g, N-([2,4′-Bipyridin]-5-ylmethyl)-9-isopropyl-2-(pyridin-3-yl)-9H-purin-6-amine], in that order: 0.494 ± 0.048 µM, 0.804 ± 0.095 µM and 0.153 µM.
The like results for `CC(C)n1cnc2c(NCc3ccc(-c4cccnc4)nc3)nc(-c3ccccc3)nc21` [Compound 18a, N-([2,3′-Bipyridin]-5-ylmethyl)-9-isopropyl-2-phenyl-9H-purin-6-amine] were, in that order, 1.12 ± 0.26 µM, 1.69 ± 0.243 µM and 0.623 µM.
As to `CC(C)n1cnc2c(NCc3ccc(-c4cccnc4)nc3)nc(-c3cccc(C(N)=O)c3)nc21` [Compound 18b, 3-(6-(([2,3′-Bipyridin]-5-ylmethyl)amino)-9-isopropyl-9H-purin-2-yl)benzamide], the GI50 in the experiment on HCC1954 cells amounted to 1.14 ± 0.304 µM; in the experiment on SK-Br3 cells it was 1.62 ± 0.248 µM. The IC50 at CDK12/CyclinK (Tables 1-4) is 0.504 µM.
For `CC(C)n1cnc2c(NCc3ccc(-c4cccnc4)nc3)nc(-c3ccc(C(N)=O)cc3)nc21` [Compound 18c, 4-(6-(([2,3′-Bipyridin]-5-ylmethyl)amino)-9-isopropyl-9H-purin-2-yl)benzamide], in that order: 3.14 ± 0.201 µM, 3.71 ± 0.45 µM and 0.484 µM.
For `CC(C)n1cnc2c(NCc3ccc(-c4cccnc4)nc3)nc(-c3ccc4[nH]ccc4c3)nc21` [Compound 18d, N-([2,3′-Bipyridin]-5-ylmethyl)-2-(1H-indol-5-yl)-9-isopropyl-9H-purin-6-amine], in that order: 1.35 ± 0.243 µM, 1.5 ± 0.112 µM and 0.155 µM.
For `CC(C)n1cnc2c(NCc3ccc(-c4cccnc4)nc3)nc(-c3ccc4cn[nH]c4c3)nc21` [Compound 18e, N-([2,3′-Bipyridin]-5-ylmethyl)-2-(1H-indazol-6-yl)-9-isopropyl-9H-purin-6-amine], in that order: 0.399 ± 0.051 µM, 0.608 ± 0.115 µM and 0.179 µM.
As to `CC(C)n1cnc2c(NCc3ccc(-c4cccnc4)nc3)nc(-c3ccc4[nH]ncc4c3)nc21` [Compound 18f, N-([2,3′-Bipyridin]-5-ylmethyl)-2-(1H-indazol-5-yl)-9-isopropyl-9H-purin-6-amine], the GI50 in the experiment on HCC1954 cells was 1.86 ± 0.148 µM; in the experiment on SK-Br3 cells it was 2.58 ± 0.167 µM. Further, the IC50 at CDK12/CyclinK (Tables 1-4) is 0.104 µM.
For the compound `c1cncc(-c2ccc(CNc3nc(-c4cccnc4)nc4c3ncn4C3CCOCC3)cn2)c1` [Compound 28c, N-([2,3′-Bipyridin]-5-ylmethyl)-2-(pyridin-3-yl)-9-(tetrahydro-2H-pyran-4-yl)-9H-purin-6-amine], the GI50 was 44.4 ± 2.46 µM with HCC1954 cells and above 100 µM with SK-Br3 cells.
For the compound `CC[C@H](CO)Nc1nc(NCc2ccc(-c3ccccn3)cc2)c2ncn(C(C)C)c2n1` [R-CR8 (9), reference compound], the GI50 in the experiment with HCC1954 cells is 0.083 ± 0.011 µM; with SK-Br3 cells, 0.101 ± 0.014 µM.

Source of the values: publication PMC9506414, “Novel 2,6,9-Trisubstituted Purines as Potent CDK Inhibitors Alleviating Trastuzumab-Resistance of HER2-Positive Breast Cancers” (Pharmaceuticals, 2022).
